#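 How tested: cells in 96-well plates exposed to compound for 48 hours at five concentrations. Here, GI50 denotes the concentration required for 50% inhibition of growth. Definition used: TGI = concentration required for complete inhibition of growth.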
# Assays:
# Assay in all cases: inhibition of tumour cell growth, NCI panel, 48 h
# [1] = system: SNB-75 CNS
# [2] = system: OVCAR-4 ovarian
# [3] = system: T-47D breast
# [4] = system: KM12 colon
# [5] = system: UACC-257 melanoma
# [6] = system: DU-145 prostate
# [7] = system: HCT-116 colon
# [8] = system: IGROV1 ovarian
# [9] = system: OVCAR-8 ovarian
# [10] = system: SN12C renal
Structure (SMILES),TGI [1] [µM],TGI [2] [µM],TGI [3] [µM],TGI [4] [µM],TGI [5] [µM],TGI [6] [µM],TGI [7] [µM],TGI [8] [µM],TGI [9] [µM],TGI [10] [µM],GI50 [1] [µM],GI50 [2] [µM],GI50 [3] [µM],GI50 [4] [µM],GI50 [5] [µM],GI50 [6] [µM],GI50 [7] [µM],GI50 [8] [µM],GI50 [10] [µM]
Oc1ccccc1/C=N/c1nc2cc3sc(/N=C/c4ccccc4O)nc3cc2s1,> 100,> 100,> 100,> 100,> 100,> 100,> 100,> 100,> 100,> 100,–,–,–,–,–,–,–,–,–
CCOC(=N)n1c(=O)n(C2=NCCN2)c2ccccc21,> 100,> 100,> 100,> 100,> 100,> 100,> 100,> 100,> 100,> 100,–,–,–,–,–,–,–,–,–
CCOC(=O)c1c(-c2ccc(OC)cc2)c(C#N)c(=S)n(C2OC(COC(C)=O)C(OC(C)=O)C(OC(C)=O)C2OC(C)=O)c1C (stereo unspecified),91,92.2,> 100,> 100,> 100,> 100,> 100,> 100,> 100,> 100,–,–,–,–,–,–,–,–,–
O=C(/C=C/c1ccsc1)c1ccsc1,> 100,> 100,92.2,37.7,39.6,> 100,30.3,94.6,85.6,40.4,–,–,–,–,–,–,–,–,–
C=CCn1c(=O)ccn(COCCO)c1=O,> 100,> 100,> 100,> 100,> 100,> 100,–,> 100,> 100,> 100,–,–,–,–,–,–,–,–,–
COc1nc(C#CCC(C)O)nc(OC)n1 (stereo unspecified),64,36.2,> 100,82,> 100,52.8,43.6,42.3,39.5,42.5,–,–,–,–,–,–,–,–,–
CC(=O)N/N=C1\NC(=O)C[C@H]2[C@@H]3CC=C4C[C@@H](OC(C)=O)CC[C@]4(C)[C@H]3CC[C@]12C,46.9,25.7,> 100,> 100,> 100,> 100,> 100,> 100,> 100,> 100,–,–,–,–,–,–,–,–,–
CC1CC[C@@]2(OC1)OC1C[C@H]3[C@@H]4CC[C@H]5CC(OC6OC(CO)C(OC7OC(CO)C(O)C(O)C7OC7OC(CO)C(O)C(O)C7O)C(O)C6O)CCC5(C)[C@H]4CCC3(C)C1[C@@H]2C (stereo partly specified),4.81,2.72,8.51,10.4,11.6,1.81,7.34,2.15,14.3,7.42,–,–,–,–,–,–,–,–,–
O=P(c1ccccc1)(c1ccccc1)N1O[C@@H](c2ccccc2)C=C[C@H]1c1ccccc1,26.5,10.6,20,44.4,26.3,26.3,16.1,28.9,32.7,17.5,–,–,–,–,–,–,–,–,–
C=CC[C@]12C[C@@H](C(=O)OC)N(C(=O)OC)[C@H]1N(S(=O)(=O)c1ccccc1)c1ccccc12,> 100,> 100,> 100,> 100,77.3,> 100,> 100,> 100,> 100,> 100,–,–,–,–,–,–,–,–,–
CCCNC(=O)CCC(C)[C@H]1CCC2C3C(C[C@H](OC(C)=O)[C@@]21C)[C@@]1(C)CCC2(C[C@H]1C[C@H]3OC(C)=O)OOC1(CCC(C)CC1)OO2 (stereo partly specified),53.5,33.9,38.4,20.2,90.9,21.2,> 100,4.36,48.3,> 100,–,–,–,–,–,–,–,–,–
O=C1c2cc3c(cc2CC1Br)CCC3 (stereo unspecified),7.44,3.86,5.68,22.1,5.1,29.4,3.03,9.3,4.04,3.22,–,–,–,–,–,–,–,–,–
Cc1cc2[nH]c3[nH]c(=O)[nH]c(=O)c3c2cc1C,> 100,–,> 100,> 100,> 100,> 100,> 100,> 100,> 100,> 100,–,–,–,–,–,–,–,–,–
NNC(=O)c1ccc[n+](CCc2ccccc2)c1,> 100,> 100,> 100,> 100,> 100,> 100,> 100,> 100,> 100,> 100,–,–,–,–,–,–,–,–,–
CC(C)/C(Cl)=N\OC(=O)Nc1ccc(C#N)cc1,31.6,3.24,40.2,29.9,25.3,32.2,17.1,32.7,31,26.6,–,–,–,–,–,–,–,–,–
CCCCC1c2c([nH]c3ccccc23)C2C(=O)N(c3ccc(OC)cc3)C(=O)C2C1CCC (stereo unspecified),6.5,> 10,> 10,5.65,9.62,> 10,7.56,> 10,8.24,4.04,–,–,–,–,–,–,–,–,–
CN(C)CCCN1C(=S)N(CCCN(C)C)c2c3cc(O)ccc3nc3c([N+](=O)[O-])ccc1c23,16.9,10.9,9.48,9.51,21.2,16.5,6.07,7,15,36.1,–,–,–,–,–,–,–,–,–
CC(C)COP(=O)(OCC(C)C)C(NS(=O)(=O)c1ccccc1)(C(F)(F)F)C(F)(F)F,12.6,13.5,9.34,14.4,17.5,29.8,21.7,16.8,25.5,18.8,–,–,–,–,–,–,–,–,–
COc1ccc(C2(CC(C)O)SCCCS2)cc1 (stereo unspecified),> 100,> 100,> 100,> 100,> 100,> 100,> 100,> 100,> 100,> 100,–,–,–,–,–,–,–,–,–
CS(=O)(=O)OCCn1c(=O)n(CCOS(C)(=O)=O)c(=O)n(CCOS(C)(=O)=O)c1=O,> 100,> 100,> 100,> 100,> 100,> 100,> 100,> 100,> 100,> 100,–,–,–,–,–,–,–,–,–
CCN(C(=S)N[C@@H](Cc1ccccc1)C(=O)N[C@@H](CC(C)C)C(=O)OC)c1ccccc1,> 100,> 100,> 100,> 100,> 100,> 100,> 100,> 100,> 100,> 100,–,–,–,–,–,–,–,–,–

Structure (SMILES),TGI [1] [µM],TGI [2] [µM],TGI [3] [µM],TGI [4] [µM],TGI [5] [µM],TGI [6] [µM],TGI [7] [µM],TGI [8] [µM],TGI [9] [µM],TGI [10] [µM],GI50 [1] [µM],GI50 [2] [µM],GI50 [3] [µM],GI50 [4] [µM],GI50 [5] [µM],GI50 [6] [µM],GI50 [7] [µM],GI50 [8] [µM],GI50 [10] [µM]
COc1cc(C2SCC(=O)N2c2ccc(NC(=O)c3ccc(N4C(=O)CSC4c4cc(OC)c(OC)c(OC)c4)cc3)cc2)cc(OC)c1OC (stereo unspecified),> 100,> 100,> 100,> 100,> 100,> 100,> 100,> 100,> 100,> 100,–,–,–,–,–,–,–,–,–
O=C(c1cc2ccccc2cc1O)N1CCCCC1,> 100,> 100,> 100,> 100,> 100,> 100,> 100,50,> 100,–,–,–,–,–,–,–,–,–,–
C/C(CC1C2CCCC1C2)=N\NC(N)=O (stereo unspecified),> 100,> 100,> 100,> 100,> 100,> 100,> 100,> 100,> 100,> 100,–,–,–,–,–,–,–,–,–
O=C(CCCN1CCC2(CC1)CC(=O)N(N1CCOCC1)C2=O)c1ccccc1,> 100,–,> 100,> 100,> 100,> 100,> 100,> 100,> 100,> 100,–,–,–,–,–,–,–,–,–
O=c1cc(N=P(c2ccccc2)(c2ccccc2)c2ccccc2)n(-c2ccccc2)c(=O)n1-c1ccccc1,39.9,45.9,55.2,> 100,> 100,> 100,42.5,58.8,> 100,75.3,–,–,–,–,–,–,–,–,–
O=c1c2cc3c(cc2[nH]c2ncccc12)OCO3,> 10,> 10,> 10,> 10,> 10,> 10,> 10,> 10,> 10,> 10,–,–,–,–,–,–,–,–,–
Cc1c(S(=O)(=O)/N=C(\N)Nc2ccc(Cl)cc2)sc2ccc(Cl)cc12,43.5,68.8,> 100,> 100,40.4,36.2,31.5,31.9,38.9,31.2,–,–,–,–,–,–,–,–,–
O=c1c2ccccc2nc2[nH][nH]c(=S)n12,> 100,–,> 100,> 100,> 100,> 100,> 100,> 100,> 100,> 100,–,–,–,–,–,–,–,–,–
CCCn1c(CN(Cc2nc3ccccc3n2CCC)Cc2nc3ccccc3n2CCC)nc2ccccc21,75.1,26.1,28.6,21.8,> 42.5,> 88.5,13.6,16.7,> 100,6.81,–,–,–,–,–,–,–,–,–
Cc1ccccc1C(O)(c1nccn1C)c1nccn1C,> 100,> 100,> 100,> 100,> 100,> 100,> 100,> 100,> 100,> 100,–,–,–,–,–,–,–,–,–
Cc1nn(C(=O)Cc2ccccc2)c2c1C(c1ccc(O)cc1)SC(N)=N2 (stereo unspecified),> 100,–,> 100,> 100,> 100,> 100,> 100,> 100,> 100,> 100,–,–,–,–,–,–,–,–,–
CN(C)c1nc(=NCc2ccccc2)ss1,> 10,> 10,> 10,> 10,> 10,> 10,> 10,> 10,> 10,> 10,–,–,–,–,–,–,–,–,–
COc1ccc(C(OCC2OC(n3cc(C)c(=O)[nH]c3=O)CC2n2cc(Cn3cc(F)c(=O)[nH]c3=O)nn2)(c2ccccc2)c2ccccc2)cc1 (stereo unspecified),42.5,47.3,24.4,14.3,28,27.1,13.2,36.4,> 100,22.8,–,–,–,–,–,–,–,–,–
O=c1oc(-c2ccc(O)c(O)c2)cc2cccc(O)c12,> 100,69.2,9.46,32.1,61.3,70.2,23.7,> 64.7,> 100,46.1,–,–,–,–,–,–,–,–,–
Nc1c(-c2cccc3ccccc23)c2ccc([N+](=O)[O-])cc2c(=O)n1-c1nc2ccccc2s1,9.65,> 53.5,> 100,24.4,> 80.8,> 100,> 40.2,> 100,10.5,> 100,–,–,–,–,–,–,–,–,–
N#CC(C#N)=CNC(=S)c1ccncc1,> 100,> 100,> 100,> 100,> 100,> 100,> 100,> 100,> 100,> 100,–,–,–,–,–,–,–,–,–
Brc1cccc(Nc2nc(-c3cccs3)nc3ccc(Br)cc23)c1,> 100,> 100,> 100,46.3,74,> 100,> 100,> 100,> 100,71.3,–,–,–,–,–,–,–,–,–
CSc1cc(Cl)c(C)cc1S(=O)(=O)NC(=O)NNc1ccc(Cl)cc1,> 100,> 100,> 100,> 100,–,> 100,> 100,> 100,> 100,> 100,–,–,–,–,–,–,–,–,–
CSc1c(C#N)c(N)n2c1C(=O)N(c1ccccc1)C2=S,> 100,69.7,> 100,> 100,> 100,> 100,> 100,> 100,> 100,> 100,–,–,–,–,–,–,–,–,–
COc1cc2c(cc1-c1c(C)noc1C)cc(C)c(=O)n2Cc1ccccn1,0.456,> 100,> 100,> 100,> 100,> 100,> 100,> 100,–,> 100,0.0306,1.33,0.456,7.77,2.18,12.6,1.91,1.2,2.91

# Source: PubChem BioAssay (NCI)
